Assay results: patent US10139394B2, “Method for controlling cancer metastasis or cancer cell migration by modulating the cellular level of lysyl tRNA synthetase” (Medicinal Bioconvergence Research Center, priority 2008, dated 2018)

Assays:
phosphorylation of KRS = assay: Laminin-induced phosphorylation of Myc-KRS, immunoprecipitation and immunoblot with anti-p-Thr, -Ser, -Tyr antibodies; format: cell-based, human; details: Myc-KRS transfected A549 cells; laminin treatment; FIG. 10
Method: In FIG. 7, A549 cells were treated with laminin (10 ug/ml) and the level of 67LR, 37LRP and KRS was determined by Western blotting at the indicated times. Hsp90 and Cadherin were used as markers for cytoplasm and membrane, respectively. In FIG. 8, A549 cells untreated or treated with laminin for 1 h were subjected to immunofluorescence staining with anti-67LR (MLuC5, Santacruz, sc-59732) (red) and -KRS antibodies (green). In FIG. 9, A549 cells were treated with U73122 (U), staurosporin (ST) and LY294002 (LY) that inhibit PLC-gamma, PKC and PI3K, respectively, for 3 hr, then with laminin for 1 hr and checked how these kinase inhibitors would affect the membrane and cytoplasmic level of 67LR and KRS. In FIG. 10, A549 cells were transfected with Myc-KRS and incubated for 24 h. The cells were treated with the indicated chemicals and then with laminin as above. Myc-KRS was immunoprecipitated, and immunoblotted with anti-p-Thr, -Ser, and -Tyr antibodies. In FIG. 11, A549 cells were transfected with Myc-KRS and cultivated for 24 hr. The transfectants were pre-treated with LY294002 for 3 hr and then treated with laminin for 1 h. Myc-KRS was immunoprecipitated and co-precipitation of 67LR was determined by Western blotting. […] EPRS (glutamyl-prolyl-tRNA synthetase) was immunoprecipitated with its specific antibody (AbCam), and co-immunoprecipitation of KRS was determined by Western blotting (upper). […]

KRS and 67LR = assay: Co-immunoprecipitation of KRS with 67LR; format: cell-based, human; details: 10 ug/ml of laminin for 1 hr; immunoprecipitation with 67LR antibody; FIG. 6
Method: FIGS. 1 to 6 show specific interaction between human KRS and laminin receptor. In FIG. 1, the interaction between full-length human KRS and 37LRP/p40 was determined by yeast two hybrid assay. AIMP1 and AIMP2, the two components of the multi-ARS complex, were used as positive and negative control, respectively. The positive interaction is indicated by blue colony formation on yeast medium containing X-gal. In FIG. 2, 37LRP was synthesized by in vitro translation in the presence of [^35S] methionine and subjected to pull-down with GST-KRS or GST. 37LRP co-precipitated with GST-KRS was detected by autoradiography. In FIG. 3, The peptide regions of KRS and 37LRP involved in their interaction was determined by yeast two hybrid assay as above. […] Myc-KRS was immunoprecipitated with anti-Myc antibody and co-precipitated 67LR and 37LRP were determined by immunoblotting. […] The cells were separated to cytoplasmic and membrane fractions and immunoprecipitated with anti-Myc antibody and co-precipitation of 37LRP and 67LR was determined by Western blotting. […]
In FIG. 7, A549 cells were treated with laminin (10 ug/ml) and the level of 67LR, 37LRP and KRS was determined by Western blotting at the indicated times. […] Myc-KRS was immunoprecipitated and co-precipitation of 67LR was determined by Western blotting. […]

With “laminin: laminin (Engelbreth-Holm-Swarm murine sarcoma) from Sigma” the “phosphorylated KRS at threonine and serine” value (phosphorylation of KRS) was “increased” and the “binding of 67LR and KRS” value (KRS and 67LR) was “increased”.
